# Assay results reported in patent US11179412B2, “Methods of treating conditions involving elevated inflammatory response” (University of Pittsburgh—Of the Commonwealth System of …, priority 2017, dated 2021).
# Entries after “also recorded” stand apart in the source; their conditions may differ.
# Assays:
# [1] = test system: STING activation (IFNβ release) in RAW264.7 cells; test: IFNβ release ELISA, RAW264.7 cells; format: cell-based, mouse; conditions: STING ligands 10 μg/ml, inhibitor 10 μM, 16 hours
# Protocol: (§1) Macrophages or monocytes were treated with 3′3′-cGAMP (10 μg/ml, Invitrogen) for 16 hours in the absence or presence of one compound (10 μM) from the Target-selective Inhibitory Library (#L3500, Selleck Chemicals). Commercially available enzyme-linked immunosorbent assay (ELISA) kits were used to measure the concentrations of mouse IFNβ (Thermo Fisher Scientific) or human IFNβ (Thermo Fisher Scientific) in culture medium according to the manufacturer's instructions.
# IFNβ mRNA in pPMs = test: IFNβ mRNA Q-PCR, pPMs; format: cell-based, mouse; conditions: STING ligands 10 μg/ml, inhibitor 10 μM, 16 hours
# Protocol: Total RNA was extracted using QIAGEN RNeasy Plus Kit according to the manufacturer's instructions. First-strand cDNA was synthesized from 1 μg of RNA using the iScript cDNA Synthesis kit (#1708890, Bio-Rad). Briefly, 20 μl reactions were prepared by combining 4 μl iScript Select reaction mix, 2 μl gene-specific enhancer solution, 1 μl reverse transcriptase, 1 μl gene-specific assay pool (20×, 2 μM), and 12 μl RNA diluted in RNase-free water. Quantitative real-time PCR was carried out using synthesized cDNA, primers, and SsoFast EvaGreen Supermix (#172-5204, Bio-Rad). The expression of target genes was calculated using the ddCt method relative to the expression of a house-keeping gene, β-actin. Data shown are the relative quantity (RQ), with RQ of the control cells set to one.
# pPMs = test: Cell viability assay (CCK-8), pPMs; format: cell-based, mouse; conditions: 3′3′-cGAMP 10 μg/ml, ALK inhibitor 10 μM, 16 hours
# Protocol: Cells were seeded into 96-well plates and incubated with the indicated treatments. Subsequently, 100 μl fresh medium was added to cells containing 10 μl Cell Counting Kit-8 (CCK-8) solutions (Dojindo Laboratories) and incubated for 1 h (37° C., 5% CO2). Absorbance at 450 nm was measured using a microplate reader (Tecan).
# [2] = test system: STING activation (IFNβ release) in pPMs; test: IFNβ release ELISA, primary peritoneal macrophages (pPMs); format: cell-based, mouse; conditions: 16 hours
# Protocol: Mouse pPMs were isolated from C57BL/6J mice as previously described (69). In brief, eight-week-old female or male C57BL/6J mice were injected with 3.0% thioglycollate medium (2 mL/mouse) into the peritoneum. Three days after injection, mice were sacrificed and injected with 3 mL of 0.05% EDTA-PBS into the peritoneum to harvest peritoneal macrophages. Collected cells were centrifuged at 1000 rpm for 5 min at 4° C., and the cell pellet was washed with PBS and centrifuged again. The cell pellet was then suspended in Dulbecco's Modified Eagle Medium supplemented with 10% FBS and 1× Penicillin-Streptomycin and cultured in a culture dish.
# as §1
# [3] = test system: STING activation (IFNβ release) in J774A.1 cells; test: IFNβ release ELISA, J774A.1 cells; format: cell-based, mouse; conditions: STING ligands 10 μg/ml, inhibitor 10 μM, 16 hours
# Protocol: as §1
# [4] = test system: STING signaling (TBK1, IRF3, p65, ALK, EGFR, AKT phosphorylation) in iBMDMs; test: Western blot of STING pathway protein phosphorylation, iBMDMs; format: cell-based, mouse
# Protocol: For immunoblotting, cells were lysed in Cell Lysis Buffer (#9803, Cell Signaling Technology) with protease inhibitor cocktail (Promega), phosphatase inhibitor cocktail (Sigma), and 1 mM Na3VO4 (70). Cleared lysates were resolved by SDS-PAGE (#3450124, Bio-Rad) and then transferred onto PVDF membranes (#1704273, Bio-Rad). The membranes were blocked with Tris-buffered saline Tween 20 (TBST) containing 5% skim milk for 1 h at room temperature and then incubated with the indicated primary antibodies (1:1000-1:5000) overnight at 4° C. After being washed with TBST, the membranes were incubated with an HRP-linked anti-mouse IgG secondary antibody (#7076, Cell Signaling Technology) or HRP-linked anti-rabbit IgG secondary antibody (#7074, Cell Signaling Technology) for 1 h at room temperature. The membranes were washed three times in TBST and then visualized and analyzed with a ChemiDoc Touch Imaging System (#1708370, Bio-Rad). The intensities of bands were analyzed with Image Lab software.
# [5] = test system: LPS-induced endotoxemia in C57BL/6J mice; test: Endotoxemia model (LPS); format: in vivo, mouse
# Protocol: LPS (Escherichia coli […], 10 mg/kg, #L4391, Sigma) was dissolved in PBS. Male or female C57BL/6J mice (eight- to 10-weeks old, 22 to 26 g weight) received a single oral dose of LDK378 (20 mg/kg) or vehicle, then an infusion of LPS (10 mg/kg, intraperitoneally) 60 minutes later. Mice were re-treated with LDK378 or vehicle six, 12, and 24 hours after LPS infusion.
# (§2) Biochemical measurements of tissue enzymes (CK, AMYL, BUN, and ALT) in serum were performed using the IDEXX Catalyst Dx Chemistry Analyzer according to the manufacturer's protocol.
# (§3) Tissues were embedded in optimum cutting temperature cryomedium (Sakura Finetek, Zoeterwoude, the Netherlands) and cut into 4 μm sections. The deparaffinized sections were then stained using the standard H&E method. The stained slides were observed using an EVOS FL Auto Cell Imaging System (Invitrogen), five fields per section and three sections per sample.
# [6] = test system: CLP-induced polymicrobial sepsis in C57BL/6J mice; test: CLP model of polymicrobial sepsis; format: in vivo, mouse
# Protocol: sepsis was induced in male or female C57BL/6J mice (eight- to 10-weeks old, 22 to 26 g) using a surgical procedure as previously described (68). Briefly, anesthesia was induced with ketamine (80-100 mg/kg/i.p.) and xylazine (10-12.5 mg/kg/i.p.). A small midline abdominal incision was made and the cecum was exteriorized and ligated with 4-0 silk immediately distal to the ileocecal valve without causing intestinal obstruction. The cecum was then punctured twice with a 17-27-gauge needle. The abdomen was closed in two layers and mice were injected subcutaneously with 1 ml Ringer's solution including analgesia (0.05 mg/kg buprenorphine). […]
# as §2, §3
# [7] = LPS 10 mg/kg, LDK378 20 mg/kg, 24 hours
smiles,measurement,setting,value
"Cc1cc(Nc2ncc(Cl)c(Nc3ccccc3S(=O)(=O)C(C)C)n2)c(OC(C)C)cc1C1CCNCC1 [LDK378, 5-chloro-N^2-(2-isopropoxy-5-methyl-4-(piperidin-4-yl)phenyl)-N^4-[2-(propane-2-sulfonyl)-phenyl]-pyrimidine-2,4-diamine]",IFNβ release induced by STING ligands,[1],inhibited
same,STING ligand-induced IFNβ mRNA expression,IFNβ mRNA in pPMs,attenuation
same,cell viability,pPMs,did not affect cell viability
same,3′3′-cGAMP-induced IFNβ release,"[2]; mouse pPMs, 3′3′-cGAMP 10 μg/ml, compound 10 μM",confirmed their inhibitory properties
same,IFNβ release induced by STING ligands,"[2]; pPMs, STING ligands 10 μg/ml, inhibitor 10 μM",inhibited
same,IFNβ release induced by STING ligands,[3],inhibited
same,3′3′-cGAMP-induced p-TBK1,"[4]; 3′3′-cGAMP 10 μg/ml, 10 μM, three to 16 hours",time-dependently reduced
same,"STING ligand-induced phosphorylation of TBK1, IRF3, and p65","[4]; 3′3′-cGAMP or c-di-AMP 10 μg/ml, 16 hours, 10 μM",diminished
same,"LPS-induced phosphorylation of TBK1, IRF3, and p65","[4]; LPS 1 μg/ml, LDK378 10 μM, three hours",inhibited
same,"3′3′-cGAMP-, c-di-AMP-, and DMXAA-induced p-IRF3 and p-p65","[4]; ligand 10 μg/ml, 10 μM",inhibited
same,c-di-AMP- or DMXAA-induced p-TBK1,"[4]; ligand 10 μg/ml, 10 μM, 16 hours",inhibited
same,"3′3′-cGAMP- or c-di-AMP-induced phosphorylation of ALK, EGFR, and AKT","[4]; ligand 10 μg/ml, 16 hours, 10 μM",attenuated
same,endotoxemic lethality (LPS-induced animal death),"[5]; LPS 10 mg/kg i.p., LDK378 20 mg/kg",promoted similar protection; also recorded: conferred significant protection; also recorded: prevented
same,organ dysfunction (serum enzyme activity),"[5]; LPS 10 mg/kg, LDK378 20 mg/kg, 12-48 hours",promoted similar protection
same,endotoxemia-induced tissue injury (H&E),[5]; [7],promoted similar protection; also recorded: prevented
same,proinflammatory cytokine expression (mRNA),[5]; [7],promoted similar protection
same,proinflammatory cytokine release (serum antibody array),[5]; [7],promoted similar protection
same,top five downregulated circulating immune chemical mediators compared with control group,"[5]; LPS 10 mg/kg, serum, 24 hours","EGF, CD14, CXCL1, endoglin, and CCL22"
same,CLP-induced lethality (animal death),"[6]; B6 mice, CLP 22-gauge needle, LDK378 20 mg/kg, intraperitoneally (i.p.), 2, 24, 48, and 72 hours after CLP, 20 mg/kg",conferred protection against lethality; also recorded: conferred significant protection; also recorded: prevented
same,protection of STING-deficient mice in high-grade sepsis,"[6]; CLP 17 G needle, STING-deficient mice",conferred further protection
same,"organ dysfunction by serum tissue enzymes (CK, AMYL, BUN, ALT)","[6]; CLP 22-gauge needle, LDK378 20 mg/kg, day 2-7",protective effects
same,"CLP-induced TNFα, IFNβ, MCP1, and IL-7 mRNA expression","[6]; CLP 22-gauge needle, LDK378 20 mg/kg, day 3",reduced
same,"CLP-induced tissue injury (H&E; lung, small intestine, other tissues)","[6]; CLP 22-gauge needle, LDK378 20 mg/kg, day 3, 20 mg/kg",reduced injury; also recorded: prevented
same,top five downregulated circulating immune chemical mediators compared with control group,"[6]; CLP 22-gauge needle, serum, day 3","IL-10, serpin E1, serpin F1, TIM-1, and CXCL2"
same,"animal survival in low-, middle-, and high-grade sepsis models","[6]; CLP with 27 G, 22 G, 17 G needles, B6 mice",prolonged animal survival
same,CLP-induced cytokine systemic release and accumulation in the serum,"[6]; serum antibody array, CLP 22-gauge needle, LDK378 20 mg/kg, day 3",reduced
